The text below walks through data of patent US11867698B2, “Fluorogenic pH sensitive dyes and their method of use” (Life Technologies Corporation, priority 2006, dated 2024).

A short description of data set [1]: Fluorimetric pH titration of the sensor molecules in aqueous buffers. To be noted: for λem / λex / pK / pKa: aqueous buffers; for λem / λex / pK: around 10 μmol/L; for S = F/F0: fluorescent response to the pH changes; for pK: fluorimetric pH titration. The format is physicochemical. The protocol:
Example 201. Fluorimetric pH titration. The study of the fluorescent response of the sensor molecules to changes in pH was performed in solution in aqueous buffers (in concentrations around 10 μmol/L).
The resulting curve has a pronounced maximum at pH 7.2 (FIG. 2).

Data set [2] can be described thus: pH titration of labeled E. coli bioparticles. It is filed as physicochemical. To be noted: dye labeled E. coli bioparticles 0.2 mg/mL, 50 mM potassium phosphate buffer, pH 1 to 10, FIG. 4. On the procedure: Example 303: Labeling E. Coli bioparticles for use in assays of phagocytosis. Escherichia coli Strain K12, lyophilized cells (Sigma, EC1-5G) were resuspended in PBS at 20 mg/mL and vortexed vigorously and sonicated for several minutes. The suspensions were divided into 100 uL aliquots spun down at 10,000×g for 2 minutes, supernatants removed and resuspended in 100 uL of PBS. This was done twice to clean up the E. coli. The amine reactive SE versions of the novel pH dyes were made up in DMSO at concentration of 10 mM. For labeling, 100 uL of the E. coli suspension was combined with 100 uL of the dye stock solution, so 2 mg of E. coli was labeled with 1 umole of dye. The labeling was carried out at 37 C for 45 minutes followed by the same spin down and resuspension procedure as described above 5 times to remove free dye. The final resuspension was 10 mg/mL. pH Titration of labeled E. Coli. The fluorescence of the labeled E. coli was measured at a range of pH values in 50 mM potassium phosphate buffer, from pH 1 to 10, using a Flexstation II (Molecular Devices) plate reader. The conjugates were diluted 1:50 into the potassium phosphate buffers, so the final concentration of the labeled bioparticles was 0.2 mg/mL.

Data set [3] concerns white blood cells (granualcytes). The data set can be described thus: Assay of phagocytic activity in whole blood using bioparticles labeled with pH sensing dyes. The format is cell-based. The protocol:
Assay of phagocytic activity using bioparticles labeled with pH sensing dyes. A whole blood sample was collected in a sodium heparin tube. Aliquots of whole blood (100 uL) were combined with labeled E. coli (20 uL of 10 mg/mL) in 12×75 mm flow cytometry Falcon tube, and the samples were incubated in a 37° C. water bath for 15 minutes. A negative control was put on ice. After incubation, the tubes were placed in a rack and the red blood cells were lysed with 1 mL of an ammonium chloride lysis solution (0.187 M NH4Cl, 10 mM KHCO3, 0.095 mM EDTA) for 10 minutes at room temperature. The samples were centrifuged at 1200 rcf for 5 minutes, the supernatants were removed, and the cell pellets were resuspended in HBSS buffer. The resuspended cells were put into a 96 well microplate, 100 uL per well, and the plate was spun to settle the cells to the bottom of the wells. Imaging was done on a Zeiss 200M inverted fluorescence microscope using a 40× objective, TRITC filters, a CoolSnap HQ (Photometrics) ccd camera, and Metamorph (Universal Imaging Corp.) acquisition software. […] This would give an overestimation of phagocytic activity in a plate reader experiment, unless other steps were taken such as including a quencher dye.

The subject of the next data set is HeLa cells. As to the kind of experiment: Staining of endocytic recycling compartment using transferrin conjugated with pH sensing dye. The format is cell-based. To be noted: transferrin conjugate 20 ug/mL, 45 minutes, 37 C, FIG. 3. On the procedure:
Staining of endocytic recycling compartment using transferrin conjugated with pH sensing dye (compound 129). HeLa (ATCC) cells were plated in a 96 well microplate at 10,000 cells per well in McCoy 5A media with 5% FBS and 4 uM deferoxamine (Sigma). Cells were grown overnight and then rinsed 2 times in DMEM with-out phenol red plus 0.5% FBS. Transferrin conjugates were applied in same media at 20 ug/mL for 45 minutes at 37 C. Cells were then rinsed 1 time with DMEM and imaged on a Zeiss 200M inverted fluorescence microscope using a 40× objective, TRITC filters, a CoolSnap HQ (Photometrics) ccd camera, and Metamorph (Universal Imaging Corp.) acquisition software.

Data set [4] is described as follows: Fluorescence response of ratiometric dextran conjugates versus pH. The format is physicochemical. As to conditions: 50 mM phosphate buffers.
Data set [5] in a line: Fluorescent pH response of transferrin conjugates labeled with pH sensing dyes. The format is physicochemical. To be noted: transferrin conjugate of the labeling sensor. The protocol: Labeling of transferrin with pH sensing dyes. All materials are from Invitrogen unless otherwise stated. Dissolve transferrin from human serum (Sigma, T4132) in 0.1 M NaHCO3, pH 8.3, to a concentration of 10 mg/mL. Make a 10 mg/mL solution of the succinimidyl ester of the dye in dry DMSO and sonicate briefly to aid in dissolution of the dye. Add a 10 to 30-fold molar excess of the reactive dye solution to the transferrin solution dropwise while stirring. Note that the volume of dye added depends on the specific dye and the amount of transferrin to be labeled. Protect the reaction vessel from light and stir for ˜1 hour at RT. Purify the conjugate on a P-30M gel filtration column (BioRad, 150-4150) in PBS, pH 7.2. Centrifuge the conjugate at 19,000 rpm for 20 minutes to remove aggregates, if present. Determine the degree of labeling by measuring A560 nm/A280 nm.

Another data set concerns neurons. The data set can be described thus: Detection of neuronal cells in mixed neuron/astroglial culture. It is filed as cell-based, rat. On the procedure:
Astroglial feeder layers were established for one week in culture on glass bottomed culture dishes, 35 mm diameter, coated with Poly-L-Lysine. Neurons from embryonic day 18 rat hippocampi were dissociated in culture medium, and seeded onto the feeder layers at a density of 25-35,000 cells per milliliter, two milliliters per dish, and allowed to grow in neuronal culture medium plus mitotic inhibitors to prevent glial proliferation.
Cells were pre-stained for 15 minutes with 200 ng/mL Hoercsht to visualize DNA in the nuclei, and 50 ng/mL calcien AM ester to visualize cytoplasm by adding 1000×DMSO stocks of these compounds to the cells in complete medium, then returning them to the cell culture incubator for fifteen minutes at 37 degrees Celsius. Cells were removed, and the medium gently poured off. The cells were immediately placed in 5 uM Compound 129, diluted from a 1 mM DMSO stock into normal saline plus 20 mM HEPES and 20 mM glucose, final pH set to 7.4 with NaOH. The cells were incubated in labeling solution for ten minutes at room temperature, and then gently washed twice with saline (above) minus dye for imaging.

Data set [6] is described as follows: Quantum yield determination relative to pH-insensitive standard 180. It is filed as physicochemical. The protocol:
Example 202. Quantum yield determination. Quantum yields at pH=2.0 and pH=10.0 were determined for the compounds 178 and 179 relative to the pH-insensitive standard 180 by comparing integrated absorption and emission spectral curves.
Compounds 178 and 179 were prepared by treatment of the corresponding succinimidyl esters 111 and 129 with methoxyethylamine. The reference standard 180 was obtained in the reaction of commercial succinimidyl 5-carboxy-tetramethylpdodamine (TAMRA-5-SE) with the same amine.

Consider `CCOC(=O)CCCN(CC)c1cc(OC)c(C2=c3cc4c5c(c3Oc3c2cc2c6c3CCCN6CCC2)CCC[N+]=5CCC4)cc1N(C)C` [Compound 162], for which, in data set [1], the λem is reported as 611 nm, the λex was found to be 587 nm, the “S = F/F0” value worked out at 88 and the pK worked out at 7.2.
The like results for “Ethyl 4-((2-dimethylamino)-5-methoxyphenyl-4-tetramethylrhodaminyl)(ethyl)amino) butanoate [Compound 133]” were, in that order, 587 nm, 561 nm, 180 and 7.3.
Turning to `CCN(CCCC(=O)OC)c1cc(OC)c(-c2c3ccc(N(C)C)cc3[o+]c3cc(N(C)C)ccc23)cc1N(C)C` [Compound 127, Methyl 4-((2-dimethylamino)-5-methoxyphenyl-4-tetramethylrhodaminyl)(ethyl)amino) butanoate], the “fluorescence upon protonation (titration curve)” value in data set [1] (FIG. 1) is “significant increase in fluorescence upon protonation”. In data set [1], the λem is recorded as 587 nm, the λex was 561 nm, the “S = F/F0” value was determined as 130 and the pK worked out at 7.3.
Turning to `CN(C)C=Nc1ccc(-c2c3ccc(=[N+](C)C)cc-3oc3cc(N(C)C)ccc23)c(C(=O)O)c1` [Compound 175], in data set [1], the λem amounted to 576 nm, the λex was found to be 550 nm, the “S = F/F0” value amounted to 10 and the pK came out at 7.7.
`CCN(CC)c1cc2occ(-c3ncc(C(=O)O)o3)c2cc1OC` [Compound 152]: in data set [1], the λem stood at 393 nm and the λex came out at 325 nm.
For `CCN(CCCC(=O)ON1C(=O)CCC1=O)c1cc(O)c(-c2c3ccc(=[N+](C)C)cc-3oc3cc(N(C)C)ccc23)cc1OC.[Cl-]` [Compound 189, N-(6-(dimethylamino)-9-(4-((4-(2,5-dioxopyrrolidin-1-yloxy)-4-oxobutyl)(ethyl)amino)-2-hydroxy-5-methoxyphenyl)-3H-xanthen-3-ylidene)-N-methylmethanaminium chloride], the “fluorescence intensity versus pH” value in data set [2] is “large increase in fluorescence at acidic pHs”.
For the compound `CCN(CCCC(=O)NCCCCCN)c1cc(OC)c(-c2c3ccc(=[N+](C)C)cc-3oc3cc(N(C)C)ccc23)cc1N(C)C` [Compound 141], in data set [1], the λem was found to be 588 nm, the λex came to 560 nm, the “S = F/F0” value worked out at 65 and the pK is given as 7.4.
In the case of `CCN(CCCC(=O)ON1C(=O)CCC1=O)c1cc(OC)c(-c2c3ccc(N(C)C)cc3[o+]c3cc(N(C)C)ccc23)cc1N(C)C` [Compound 129, Succinimidyl 4-((2-Dimethylamino)-5-methoxyphenyl-4-tetramethylrhodaminyl)(ethyl)amino) butanoate], the “fluorescence of cells by flow cytometry” value in data set [3] (E. coli labeled with the dye, relative to unlabeled E. coli and iced negative control, FIG. 5) is “increase in fluorescence”. Besides, the “staining seen by fluorescence microscopy” value in data set [3] (labeled E. coli, whole blood, 37° C., 15 minutes, FIG. 6) is on record as “bright vesicular staining of the phagosomes filled with the engulfed E. coli within the cells”. Further, the staining pattern entry with HeLa cells was “characteristic perinuclear staining pattern of the endocytic recycling compartment”. Also, the “fluorescence intensity versus pH” value in data set [2] is “large increase in fluorescence at acidic pHs”. Further, the “fluorescence in the red channel versus pH” value in data set [4] (10,000 MW dextran conjugate with rhodamine green, 0.1 mg/mL, ex 540, em 600, FIG. 10A) is recorded as “fluorescence does change with pH”; in data set [4] (dextran conjugate with rhodamine green at a higher degree of label than Compound 129, 0.1 mg/mL, ex 540, em 600, FIG. 9A) it was “fluorescence does change with pH”. The pKa in data set [5] is 4.2. In addition, the “uptake by glial cells shown by acidification of the preparation” value with neurons is on record as “had in fact taken up”. Further, in the data set on neurons (5 uM, ten minutes, room temperature, pH 7.4, TRITC channel), the “labeling of neurons relative to astrocytes” value was “appear bright over the dimly labeled astrocytes”.
With `CCOC(=O)CCCN(CC)c1cc(OC)c(C2=c3cc4c5c(c3Oc3c2cc2c6c3CCCN6CCC2)CCC[N+]=5CCC4)cc1OC` [Compound 155], in data set [1], the λem was found to be 611 nm, the λex turned out to be 586 nm, the “S = F/F0” value was 53 and the pK came to 5.0.
The like results for `CCOC(=O)CCCN(CC)c1cc(OC)c(-c2cc3ccc(C(=O)OC)cc3[nH]2)cc1OC` [Compound 157] were, in that order, 424 nm, 349 nm, 270 and 5.4.
With `CCN(CCCC(=O)NCCCCCC(=O)ON1C(=O)CCC1=O)c1cc(OC)c(-c2c3ccc(=[N+](C)C)cc-3oc3cc(N(C)C)ccc23)cc1N(C)C` [Compound 139], in data set [1], the λem came to 588 nm, the λex stood at 556 nm, the “S = F/F0” value came to 80 and the pK was found to be 5.6. Moreover, in data set [5], the “S = F/F0” value was determined as 15.
`CCN(CCCC(=O)NCCOC)c1cc(OC)c(-c2c3ccc(=[N+](C)C)cc-3oc3cc(N(C)C)ccc23)cc1OC` [Compound 178] registered a pKa in data set [6] (aqueous buffers, Table 4) of 4.6. Further, in data set [6] (relative quantum yield, pH = 2.0, relative to standard 180), the “QE (pH = 2.0)” value was 0.78. In data set [6] (relative quantum yield, pH = 10.0, relative to standard 180), the “QE (pH = 10.0)” value is 0.008.
For `CN(C)C=Nc1ccc(-c2c3ccc(=O)cc-3oc3cc(O)ccc23)c(C(=O)O)c1` [Compound 173], the “pH of the maximum of the titration curve” value in data set [1] (FIG. 2) amounted to 7.2. Also, in data set [1] (FIG. 2, read-out: pKa, drop in fluorescence (amidine titration curve)), the pKa was approximately 8. In data set [1], the λem was 517 nm, the λex is listed as 490 nm, the “S = F/F0” value was 200 and the pK stood at 7.2. The compound also yielded a pKa in data set [1] (pKa, increase in fluorescence (fluorescein titration curve), FIG. 2) of approximately 5.5.
